Results: US20110262025A1, “Cosmetic Compositions and Methods for Maintaining and Improving Barrier Function of the Stratum Corneum and to Reduce the Visible Signs of Aging in Skin” (priority 2010, published 2011)
Where a SMILES comes first, the peptide text is derived from it. The star is where a group is joined. Cbz = O=C(OCc1ccccc1)*; CH2F = FC*

Tests used:
[1] = tested on: Aquaporin 3; assay: Multiplex mRNA analysis (Panomics QuantiGene Plex) in keratinocytes; assay type: cell-based; conditions: neonatal human keratinocytes, 24 hours, vs no treatment
Protocol: A multiplex mRNA analysis was conducted. RNA was isolated from neonatal human keratinocytes. Neonatal human keratinocytes (Cascade Biologics # C-001-5C) were grown to 40% confluence in 6-well tissue culture plates then treated with compounds for 24 hours (3 replicates per treatment). The treatments included several concentrations of Hexamidine, Niacinamide, and /or Pentanediol. Additionally, 0.00194% (100 μM) caffeine and no-treatment controls were performed.
Several targets were measured with Panomics QuantiGene Plex Assay kit, a multi-analyte quantitative bead-based assay. The fluorescence intensity values, measured by a Bio-Rad Bio-Plex 100 instrument, for those samples yielding sufficient RNA are shown for Aquaporin 3, CDD44 antigen, and Claudin 1. Also measured were Glyceraldehyde-3-phosphate dehydrogenase, Collagen 1α2, Filaggrin, Serine palmitoyltransferase, Interleukin 1,3-hydroxy-3methylglutaryl-coenzyme A reductase, and Interferon gamma.

[2] = tested on: genes associated with SC lipid pathways, Dermaquant model keratinocytes and fibroblasts; assay: Transcriptional profiling (Affymetrix U133A plus 2) in aged-equivalent skin culture; assay type: cell-based, human; conditions: 0.1% Hexamidine vs vehicle (water), 4-48 hours
Protocol: The Experimental design is set forth in Table I. Cultures were treated and harvested at indicated time points. Total RNA extraction, labeling and hybridization to AffymetrixTM U133A plus 2 gene chips were conducted. Data were subjected to normalization and statistical analysis.

[3] = tested on: Epiderm 201 cultures; assay: TEWL (evaporimeter) in epidermal cultures; assay type: cell-based, human; conditions: 1% Niacinamide, 24 hour treatment
From the text: Biomarker endpoints and certain clinical skin instrumental measurements, such as those used for skin barrier determinations, can be detected in skin equivalent cultures. As noted above, the stratum corneum barrier consists of flattened, terminally differentiated corneocytes surrounded by specialized lamellar lipids, which act to retard loss of water from the skin's surface. Water loss can be measured functionally by use of an evaporimeter instrument wherein the endpoint measured is TEWL, and is expressed in units of grams of water per skin per hour. In one validity test the present inventors took epidermal cultures from a commercial supplier (Epiderm 201 cultures from MatTek Corp., Ashland Mass.) grew them in cultures for four days whereby the number of differentiated cell layers and stratum corneum thickness was increased during this period. […] These findings indicate that in vitro epidermal constructs form a functional water barrier that can be enhanced by compounds such as Niacinamide.

[4] = tested on: cornification; conditions: after barrier disruption; cited from earlier work

With `N=C(N)c1ccc(OCCCCCCOc2ccc(C(=N)N)cc2)cc1` [Hexamidine, 4,4′-(hexamethylenedioxy)dibenzenecarboximidamide] the “Aquaporin 3 expression” value [1] was “upregulated”, the “cellular cholesterol and fatty acid uptake mechanisms” value [2] was “up-regulation” and the “expression of gene involved in LB formation (ABCAl2)” value [2] was “Increased expression”. For the same compound, the “expression of gene involved in LB secretion (ABHD5)” value [2] was “Increased expression”, the “gene encoding rate limiting enzyme in biosynthesis of cholesterol (HMGCR)” value [2] was “up-regulation” and the “gene encoding rate limiting enzyme in biosynthesis of fatty acid (ACACA)” value [2] was “up-regulation”. For the same compound, the “gene encoding rate limiting enzyme in biosynthesis of sphingolipid (SPTLC1/2)” value [2] was “up-regulation”, the “mitochondrial cholesterol and fatty acid utilization pathways” value [2] was “down-regulation” and the “transcriptional activators of genes involved in lipid metabolism” value [2] was “up-regulation”.
In the case of `NC(=O)c1cccnc1` [Niacinamide], the TEWL levels [3] is reported as “reduced further”.
For `COC(=O)C[C@H](NC(=O)[C@H](C)NC(=O)[C@@H](NC(=O)OCc1ccccc1)C(C)C)C(=O)CF` [Z-VAD-FMK] (Cbz-Val-Ala-Asp(OMe)-CH2F), the cornification [4] is listed as “delays”.
For Pentanediol, the “Aquaporin 3 expression” value [1] was “upregulated”.
